Assay results published in US5145839A, “Pharmaceutical composition and method of use” (priority 1988, dated 1992).

What was measured:
cancer cell DNA = assay: UV absorbance at 260 nm (hypochromicity, DNA chain contraction), cancer cell DNA; conditions: 20 μg DNA in 1 ml Tris-HCl pH 7.3, room temperature, FIGS. 5a, 5b
Source text: (§1) Naringin prepared in accordance with Example 1, and a commercial sample of naringenin prepared by Roth Co. of France, were used for comparison. […] The results are expressed as decrease of UV absorbance (hypochromicity) in the presence of various concentrations of the agent. The hypochromicity corresponds to DNA chain contraction, while hyperchromicity would correspond to DNA chain opening (i.e. the breaking of hydrogen bonds which normally hold the two DNA chains together). The spleen and bone marrow DNAs used in this test were from normal human spleen and bone marrow tissue cells. UV absorbance at wavelength of 260 nm for different DNAs from normal and cancer cells is performed at room temperature. 20 μg (micrograms) of DNA (deoxyribonucleic acid) are dissolved in 1 ml of Tris-HC1 buffer (10^-2 molar, pH adjusted to 7.3, solution made using sterile distilled water). The absorbance is measured before and after addition of either naringin or naringenin. The blank cuvette contains an equivalent amount of naringin or naringenin, but not DNA. The contact between DNA and compound is of about one minute (very slight agitation). The absorbance at 260 nm is then measured. The results are expressed as diminution (%) of UV absorbance.

[1] = tested on: normal cell DNA (spleen and bone marrow); assay: UV absorbance at 260 nm (hypochromicity, DNA chain contraction), normal cell DNA; conditions: normal human spleen and bone marrow DNA, 20 μg in 1 ml Tris-HCl pH 7.3, 260 nm; FIGS. 5a, 5b
Source text: as §1

[2] = tested on: tobacco mosaic virus (TMV); assay: tobacco mosaic virus multiplication on tobacco leaf (plaque forming units); conditions: 20-50 micrograms per milliliter, virus incubated at 30° C. for 30 min.; xanthy tobacco leaf; checked two to three days later; FIG. 7
Experimental: The effect of naringin prepared according to Example 1, of commercial naringin and of commercial naringenin has been tested on tobacco mosaic virus (TMV). In this experiment, viral suspension containing 2 μg of virus/ml of distilled water, was incubated at 30° C. for 30 min. with each of the above compounds (20-50 micrograms per milliliter) and then 20 μl placed on one-half of the leaf ([…] tobacco) while the same concentration of untreated virus was placed on the other half of the same leaf. The appearance of viral disease was checked two to three days later. […] Naringenin or commercial naringin gave similar results.

[3] = tested on: Terminal deoxynucleotidyl Transferase (TdT); assay: in vitro activity of TdT in cat leucosis vaccine (Leucocell); type: biochemical; conditions: 10 minutes at 36° C., pH 7.70, FIG. 6
Source text: Both naringin and naringenin inhibit in vitro the activity of Terminal deoxynucleotidyl Transferase (TdT), an enzyme involved in the integration of viral genome into host cell. This enzyme is present in cat leucosis vaccine prepared by genetic engineering (Engerix® Leucocell vaccine), vaccine highly purified. I have previously shown that this enzyme catalyzes the polymerisation of d-TMP and d-CMP originating from d-TTP and d-CTP used respectively as substrates.
(§2) For testing the activity of TdT, the incubation medium (0.10 ml final volume) contains: 25 μmoles fresh solution of Tris-HC1 buffer pH 7.70; 2 μmoles MgCl2; (^3 d-NTP (deoxynucleoside-5'-triphosphate, 100,000 CPM). Increasing amounts of Leucocell vaccine (as indicated in FIG. 6) are used. Incubation for 10 minutes at 36° C., then addition of an equal volume of trichloroacetic acid (TCA 5%). Acid-precipitable material is filtered on millipore (Whatman GF/C), washed with 5% TCA then with 95° alcohol. After millipore drying, radioactivity of acid-insoluble material is measured in scintillation spectrometer Packard. The results are expressed as CPM (counts/minute)/sample.

[4] = tested on: Terminal deoxynucleotidyl Transferase (TdT); assay: in vitro activity of TdT which contaminates Engerix-vaccine antigen B; type: biochemical; conditions: TdT which contaminates Engerix-vaccine antigen B (DNA virus antigen), same conditions
Experimental: as §2
In contrast, the activity of TdT which contaminates Engerix®-vaccine antigen B (Med. Sci. Res. 1987, vol.15 pp. 529-530), an antigen prepared from DNA virus is not inhibited, under the same conditions, by naringin or naringenin. Thus both naringin and naringenin selectively interfere with the proliferation of RNA virus but not DNA virus. However, as RNA from RNA-virus is transcribed into DNA by reverse transcriptase before being integrated into cell genome (potential role of TdT), naringin and naringenin are equally useful agents in treatment of all DNA infections equally.

BALB C mice = assay: toxicity by intravenous route in BALB C mice; type: in vivo, mouse; conditions: for toxic effect: i.v. route, 10% DMSO, BALB C mice; for tolerability: i.v. injection or perfusion, doses from 250-1000 mg/kg (concluded)
Source text: This example illustrates the absence of toxicity of naringin or naringenin injected by intravenous route to BALB C mice.

[5] = tested on: DNAs from different human cancer tissues, i.e. breast, colon and liver cancers; assay: in vitro synthesis (replication) of DNA from human cancer tissues; type: biochemical; conditions: FIG. 3
Source text: (§3) […]
(§4) DNAs used were isolated from human cancer and normal tissues furnished by different hospitals as indicated in IRCS Medical Science 14: 809-810, 1986. The normal brain tissue originated from Macaca mulatta.

[6] = tested on: DNAs from normal tissues (human bone marrow and spleen); assay: in vitro synthesis (replication) of DNA from normal human tissues; type: biochemical; conditions: FIG. 3
Source text: as §3, §4

[7] = tested on: DNA from normal monkey brain; assay: in vitro synthesis (replication) of DNA from normal monkey brain; type: biochemical; conditions: Macaca mulatta brain; FIG. 3
Source text: as §3, §4

[8] = tested on: DNA from cancerous tissue; assay: in vitro synthesis of tritium-labeled cancer DNA, agent added at different points in time; type: biochemical; conditions: FIGS. 4a, 4b
Source text: The same test method was used on DNA from cancerous tissue, determining the amount of tritium-labeled DNA synthesized over a period of time and the effect of introducing naringin at different points in time.

human cancer cells = assay: effect on in vitro cultured human cancer cells; type: cell-based; conditions: various concentrations; ovary cancer and leukemic cells resistant to classical chemotherapy; FIG. 2
Experimental: (§5) Naringin prepared in Example 1 has been used for determining its effect on in vitro cultured human cancer and normal cells, according to the method of Shoermaker R.H. et al., Cancer Research 45: 2145-2153, 1985). Culture medium contained 100 μg of penicillin and streptomycin in order to prevent bacterial contamination.

[9] = tested on: normal human bone marrow cells; assay: effect on in vitro cultured normal human bone marrow cells; type: cell-based; conditions: various concentrations; FIG. 2
Experimental: as §5

Ehrlich ascitic cells = assay: mice bearing Ehrlich ascitic cells; type: in vivo, Swiss mice; conditions: than lymphoma YC8 cells
Experimental: (§6) O BALB C mice bearing lymphoma YC8 (ascitic form) and Swiss mice bearing Ehrlich ascitic cells (20-22 grams, Charles River breeding) were distributed at random in sets of 10.
Set II: Mice bearing tumor cells received JO-1 (= naringin, Example 1): 0.2 ml/mouse, twice/day, i.p. route (for JO-1 concentrations, see Tables 1, 3, and 4, and FIG. 10.)
(§7) Ascitic tumor cells were taken in sterile medium from mice bearing these cells for 15-20 days. 0.1 ml of ascitic suspension was mixed with 10 ml of buffered solution (pH 7.2) : (NaCl 7.2 g/l; Na2 HPO4 4.3 g/l and KH2 PO4 0.4 g/l).
(§8) The number of cells was determined (by Malassez cell) and cellular suspension diluted in order to get cell number close to 40.000-50.000/ml. 0.1 ml of this suspension was immediately injected by i.p. route to mice in sets I, II and III and by i.m. route to mice in set IV.
Treatment: 48 hours after injection of tumor cells: the mice of set II received (i.p.) JO-1 heated at 37° and filtered on millipore, treatment for five consecutive days; the mice of set III were treated (i.p.) by a mixture of JO-1 and one of the antibiotics for 5 consecutive days; the mice of set I (control) received (i.p.) only isotonic solution for 5 consecutive days; the mice of set IV received (i.m.) JO-1 for 15 consecutive days.
Only the survivors in excellent physical condition were taken into consideration .

tumor cells = assay: mice bearing tumor cells treated with naringin and a chemotherapeutic agent; type: in vivo, mouse; conditions: with 5-fluorouracil, ARA-C, Endoxan, hydroxy-urea; i.p.; FIGS. 9a-9b, 10a-10d
Experimental: as §6
Set III: Mice bearing tumor cells received naringin (JO-1): 0.2 ml/mouse twice/day (for concentrations, see FIGS. 9 and 10), i.p. route and, at the same time these mice received a chemotherapeutic agent (for concentrations, see FIGS. 9 and 10) i.p. route.
as §7, §8
Treatment: 48 hours after injection of tumor cells: the mice of set II received (i.p.) JO-1 heated at 37° and filtered on millipore, treatment for five consecutive days; the mice of set III were treated (i.p.) by a mixture of JO-1 and one of the antibiotics for 5 consecutive days; the mice of set I (control) received (i.p.) only isotonic solution for 5 consecutive days; the mice of set IV received (i.m.) JO-1 for 15 consecutive days. […]

[10] = biological activity compared with commercial compounds; conditions: compared with that exhibited by commercial compounds

Row | Structure (SMILES) | contraction of cancer cell DNA chains (hypochromicity) (cancer cell DNA) | contraction of normal cell DNA chains (hypochromicity) [1] | inhibition of TMV multiplication [2] | inhibition of in vitro activity of TdT [3] | inhibition of in vitro activity of TdT [4] | toxic effect (BALB C mice; 125 mg/kg) | toxic effect (BALB C mice; 250 mg/kg) | toxic effect (BALB C mice; 500 mg/kg) | tolerability (BALB C mice) | inhibition of in vitro synthesis of DNAs from human cancer tissues [5] | effect on in vitro synthesis of DNAs from normal human tissues [6] | effect on in vitro synthesis of DNA from normal monkey brain [7] | effect on DNA chain elongation ([8]; added after the reaction starts) | effect on DNA initiation ([8]; given at zero time of incubation) | inhibition of in vitro cultured human cancer cells (human cancer cells) | effect on in vitro cultured normal human bone marrow cells [9] | sensitivity of Ehrlich ascitic cells to naringin compared with lymphoma YC8 cells (Ehrlich ascitic cells) | synergistic action with classical antibiotics (tumor cells) | biological activity [10]
1 | O=C1C[C@@H](c2ccc(O)cc2)Oc2cc(O)cc(O)c21 [naringenin] | contract cancer cell DNA chains | either no effect or a very slight effect | inhibits TMV multiplication | inhibit in vitro activity of TdT | not inhibited | no toxic effect | no toxic effect | no toxic effect | well tolerated |  |  |  |  |  |  |  |  |  | 
2 | C[C@@H]1O[C@@H](O[C@H]2[C@H](Oc3cc(O)c4c(c3)O[C@H](c3ccc(O)cc3)CC4=O)O[C@H](CO)[C@@H](O)[C@@H]2O)[C@H](O)[C@H](O)[C@H]1O [naringin] | contract cancer cell DNA chains | either no effect or a very slight effect | inhibits TMV multiplication | inhibit in vitro activity of TdT | not inhibited | no toxic effect | no toxic effect | no toxic effect | well tolerated | strongly inhibits | practically unaffected | practically unaffected | stops DNA chain elongation | acts on DNA initiation sites | strongly inhibits | little effect | less sensitive | synergistic action | better biological activity
